Experimental data as given in US20120202885A1, “METHODS, ASSAYS AND COMPOSITIONS FOR TREATING RETINOL-RELATED DISEASES” (ReVision Therapeutics, Inc., priority 2004, published 2012).

How the values were obtained:
retinol-RBP-TTR complex = retinol-RBP-TTR complex (Homo sapiens, UniProt P02753); assay: High-throughput FRET assay for RBP/TTR interaction; format: binding
Description: Reduction of serum retinol and RBP are correlated with concomitant reductions in toxic lipofuscin fluorophores. Because compounds that affect RBP-TTR interaction will directly affect fluorophore levels in the eye, a high-throughput screen for small molecules which prevent interaction of RBP with TTR was developed. This screen employs probe-labeled forms of RBP and TTR which participate in a unique fluorescence resonance energy transfer (FRET) event when complexed. Compounds which interfere with RBP-TTR interaction prevent FRET. Sample spectra taken during the course of this type of assay are shown, in FIG. 4. […] The sample is incubated at 37° C. for 30 min and then illuminated with 330 nm light. The emission spectra are shown in the range of 400-600 nm. HPR binds to RBP and prevents interaction with TTR, and here this property of HPR is utilized here to validate the ability of this screen to detect inhibition of RBP-TTR interaction. […] Additionally, the design of this assay permits discrimination between compounds which interact with RBP versus those which interact with TTR. Thus, by using two distinct excitation energies (280 nm and 330 nm, for protein and retinol, respectively) and implementing simultaneous monitoring of the retinol and TTR-probe fluorescence, the “target” of a presumptive small molecule can be easily determined.
Accordingly, HPR was employed at varied concentrations (from 0-4 μM), using the conditions specified in Example 7, to evaluate the high throughput assay.
The mechanism of action underlying this effect can be explained by the disruption of RBP-TTR interactions. In order to explore this possibility and to further validate the RBP-TTR screen, the effects of all-trans retinoic and 13-cis retinoic acid, using the conditions the conditions specified for analysis of HPR, were examined.

ABCA4 null mutant mice = assay: 28-day HPR dose study: serum retinol, A2PE-H2, A2E, retinoids, retinal physiology and histology; format: in vivo
Protocol: ABCA4 null mutant mice were given the indicated dose of HPR in DMSO (i.p.) daily for 28 days (n=4 mice per dosage group). At the end of the study period, blood samples were taken and serum was prepared. Following acetonitrile precipitation of serum proteins, the concentrations of retinol and HPR were determined from the soluble phase by LC/MS (see FIG. 8). Identity of the eluted compounds was confirmed by UV-vis absorption spectroscopy and co-elution of sample peaks with authentic standards.
Group averages from the data shown in panels A-G of FIG. 13 in Example 25 (28 day time points) are plotted to illustrate the strong correlation between increases in serum HPR and decreases in serum retinol (see FIG. 14). Reductions in serum retinol are highly correlated with reductions in A2E and precursor compounds (A2PE-H2). A pronounced reduction in A2PE-H2 in the 2.5 mg/kg dosage group (−47%) is observed when the serum retinol reduction is only 20%. The reason for this disproportionate reduction is related to the inherently lower ocular retinoid content in this group of 2-month old animals compared to the other groups. It is likely that if these animals had been maintained on the 2.5 mg/kg dose for a more prolonged period, a greater reduction in A2E would also be realized.
Panels D-F of FIG. 15 are electrophysiological measurements of rod function (panel D), rod and cone function (panel E) and recovery from photobleaching (panel F).
ABCA4 null mutant mice were given the indicated dose of HPR in DMSO or DMSO alone daily for 28 days (n=16 mice per treatment group). At study onset, mice in the 2.5 mg/kg group were 2 months of age, mice in the other treatment groups were 3 months of age. At the indicated times, representative mice were taken from each group (n=4) for analysis of A2E precursor compounds (see FIG. 13, A2PE-H2, panels A, C and E) and A2E (see FIG. 13, panels B, D and F). Eyes were enucleated, hemisected and lipid soluble components were extracted from the posterior pole by chloroform/methanol-water phase partitioning. Sample extracts were analyzed by LC. Identity of the eluted compounds was confirmed by UV-vis absorption spectroscopy and co-elution of sample peaks with authentic standards. Note: limitations in appropriately age and strain-matched mice in the 10 mg/kg group prevented analysis at the 14-day interval.
Treatment conditions are as described above.

[1] = target: interaction of TTR with RBP (Homo sapiens, UniProt P02753); conditions: Malpeli et al., Holven et al.; cited from earlier work

## CC1=C(/C=C/C(C)=C/C=C/C(C)=C/C(=O)Nc2ccc(O)cc2)C(C)(C)CCC1 [HPR, N-(4-hydroxyphenyl)retinamide]
retinol-RBP-TTR complex; HPR 1 μM, 0.5 μM RBP + 0.5 μM Alexa430-TTR, 37° C. 30 min, 330 nm excitation
  retinol and TTR-probe fluorescence (loss of RBP-TTR complexation): significantly reduced retinol and TTR-probe fluorescence
retinol-RBP-TTR complex; varied concentrations 0-4 μM, FIG. 5
  inhibition of retinol-RBP-TTR complex formation: dose dependent inhibition
ABCA4 null mutant mice; 2.5 mg/kg dosage group, 28 days
  reduction in A2PE-H2: −47%
ABCA4 null mutant mice; 10 mg/kg daily for 28 days
  electrophysiology: recovery from photobleaching: delayed dark adaptation
  regeneration of visual chromophore: does not affect regeneration of visual chromophore
ABCA4 null mutant mice; 28 days
  retinal morphology by light microscopy: No aberrant morphology or compromise of the integrity in retinal cyto structure was observed
ABCA4 null mutant mice; abcr null mutant mice, 28 days
  level of autofluorescence versus wild type: comparable to that of an age-matched wild-type animal
  lipofuscin autofluorescence in the RPE: significantly reduces lipofuscin autofluorescence
ABCA4 null mutant mice; indicated doses daily for 28 days
  A2PE-H2 and A2E during the study period: dose-dependent reductions
ABCA4 null mutant mice; summary statement
  serum retinol: potently and reversibly reduces serum retinol
[1]
  interaction of TTR with RBP: interferes with the normal interaction of TTR with RBP
